From US12275685B2, “Oligo-benzamide analogs and their use in cancer treatment” (Board of Regents, The University of Texas System, priority 2018, dated 2025) come the findings set out here.

Each structure is given as a SMILES string. pIC50: −log10 of the molar value.

The test system of assay [1] is estrogen receptor-positive, estrogen receptor-negative and therapy resistant ERMT cells. Description: MTT assay of TK41 on breast cancer cells. The format is cell-based. The procedure: FIGS. 2A-2C show the potency of TK41 (IC50 from 50-500 nM) on estrogen receptor-positive (FIG. 2A), estrogen receptor-negative (FIG. 2B) and therapy resistant ERMT (FIG. 2C) cells determined by MTT assay.

Assay [2] deals with D2A1 xenografts. Description: D2A1 syngeneic tumor model. The format is in vivo, mice. As to conditions: 10 mg/kg daily. Here is the method: FIGS. 35A-P: ERX-41 is potent against TNBC in vivo. (FIG. 35A) Following establishment of subcutaneous MDA-MB-231 xenograft tumors (200 mm^3), 10 mg/kg single dose ERX-41 was administered either by oral or intraperitoneal route. The tumor was harvested 0, 0, 5, 1, 5, 3, 6 and 24 h after drug administration and the drug levels assayed by LC-MS/MS and graphed. (FIGS. 35B-E) Following establishment of MDA-MB-231 xenografts in mammary fat pad in vivo (100 mm^3 size), daily administration of 10 mg/kg ERX-41 or vehicle control (N=8 each group) was initiated. Tumor volumes were measured using digital calipers and graphed (FIG. 35B). Tumor weights (FIG. 35C), body weights (FIG. 35D) and extirpated tumors (FIG. 35E) at end of study are also shown. (FIGS. 35F-H) Following establishment of D2A1 syngeneic xenografts in mammary fat pad in vivo (100 mm^3 size), daily administration of 10 mg/kg ERX-41 or vehicle control (N=8 each group) was initiated. Tumor volumes were measured using digital calipers and graphed (FIG. 35F) along with tumor weights (FIG. 35G) and body weights (FIG. 35H). (FIGS. 35I-P) Effect of ERX-41 on the growth (FIG. 351, FIG. 35K, FIG. 35M, FIG. 35O) and tumor weights (FIG. 35J, FIG. 35L, FIG. 35N, FIG. 35P) of four distinct TNBC PDXs compared to vehicle. *p<0.05. **p<0.01; ***p<0.001. […]

The subject of assay [3] is SUM-159 cells with LIPA KO and reconstitution of LIPA. Description: Dose response in SUM-159 LIPA KO cells reconstituted with LIPA constructs. The format is cell-based. The text has this: FIGS. 39A-N: (FIGS. 39A-E) Predicted binding mode of ERX-41 (colored in green) on the human lysosomal acid lipase (LAL, PDB code: 6V7N, LXXLL (SEQ ID NO: 1) domain colored in orange). (FIG. 39F) PDB structure of LAL protein showing relative positions of the catalytic domain (with H274Y MT) and the LXXLL (SEQ ID NO: 1) domain (L242P MT). (FIG. 39G) Evaluation of the effect of ERX-41 and lalistat (known lipase inhibitor) on lipase activity of parental SUM-159 (WT) and SUM-159 cells with LIPA KO. (FIG. 39H) Evaluation of basal lipase activity in parental SUM-159 (WT), SUM-159 cells with LIPA KO (KO), SUM-159 cells with LIPA KO and with reconstitution of either WT LIPA (KO+WT), H274Y MT-LIPA (KO+H274Y), DLXXLL (SEQ ID NO: 2) MT-LIPA (KO+DLXXLL (SEQ ID NO: 2)) or L242P MT-LIPA (KO+L242P). Protein expression of LAL and control vinculin in these cells are shown below (FIG. 391) Cellular lysates from described SUM-159 cells were incubated with biotinylated ERX-11 or biotinylated ERX-41 and then subject to a streptavidin column. Elutants were then evaluated for LIPA pulldown by western blotting. (FIG. 39J) Dose response curve to increasing concentrations of ERX-41 in described SUM-159 cells. (FIGS. 39K-M) Effect of vehicle or 1 μM ERX-41 on induction of UPR genes at the protein level (FIG. 39K) or RNA level (FIGS. 39L-M). […]

Consider `CC(C)COc1cc(C(=O)Nc2ccc(C(=O)N[C@H]3CC[C@H](C)CC3)cc2OCC(C)C)ccc1NC(=O)c1ccc([N+](=O)[O-])c(OCCO)c1` [TK41], for which the pIC50 in assay [1] (ER-positive, ER-negative and therapy resistant ERMT cells, MTT assay) is 6.30 to 7.30; in assay [3] (SUM159, KO+WT (WT-LIPA reconstituted)), 6.60. Further, in assay [1] (endocrine therapy resistant breast cancer cells), the “effect on endocrine therapy resistant breast cancer cells” value is “very effective”. The “growth of D2A1 xenografts” value in assay [2] is given as “significantly reduce the growth”. Moreover, the “sensitivity after reconstitution of H274Y MT-LIPA” value in assay [3] (KO+H274Y) is “restored sensitivity”.
